Structures can show the parent of a compound that is named as a salt.
These molecules were tested against T1, Tau P301L (Homo sapiens, UniProt P10636, P618L) (assay: In vitro tau degradation assay in CHOK1 Tau P301L cells (sarkosyl insoluble tau, WES)). Conditions: CHO-K1; CHOK1 Tau P301L cells; remaining tau in sarkosyl insoluble pellet; 48 hours with test compound at 1 μM, doxycycline removed for last 24 hours; relative to DMSO doxycycline control; read-out: Tau Protein Degradation effect at 1 μM.
T1 construct: expressed in transfected cells
T1 sequence (P10636 1-441 isoform P10636-8 P301L): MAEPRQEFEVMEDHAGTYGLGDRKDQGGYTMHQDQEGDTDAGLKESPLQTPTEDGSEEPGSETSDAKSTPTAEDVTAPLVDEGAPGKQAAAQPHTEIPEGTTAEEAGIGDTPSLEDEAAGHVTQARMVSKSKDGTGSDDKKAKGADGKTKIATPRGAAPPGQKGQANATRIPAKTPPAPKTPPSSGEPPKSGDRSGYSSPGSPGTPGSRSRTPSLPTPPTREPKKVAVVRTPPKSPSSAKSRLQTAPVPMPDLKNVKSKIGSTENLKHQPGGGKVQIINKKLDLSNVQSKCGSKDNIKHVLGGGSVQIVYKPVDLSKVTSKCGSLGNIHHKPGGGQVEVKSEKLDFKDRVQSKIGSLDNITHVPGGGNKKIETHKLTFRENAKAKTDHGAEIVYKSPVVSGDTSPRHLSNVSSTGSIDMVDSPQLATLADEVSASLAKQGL
Format: cell-based
Protocol: Exemplary bifunctional molecules of the present disclosure are represented by the structures in Table 1, which includes associated data. In vitro tau protein degradation data in CHOK1 Tau P301L cells, as described below, is reported based on the remaining tau protein in the sarkosyl insoluble pellet following treatment of cells for 48 hours with test compound at the 1 μM concentration where the last 24 hours doxycycline was removed. The data are represented relative to DMSO doxycycline control: • A ≤50% of tau protein remaining (>50% of tau protein degraded) • B >50% of tau protein remaining ([…] of tau protein degraded)
Data for compounds in Table 1 was generated using in vitro tau Degradation Assay protocol as described in Methods for FIGS. 2A and 2B below.
FIGS. 2A and 2B. (2A) Tau expression was induced by addition (+) of doxycycline (1 μg/ml) to ChoK1-Tau P301L clone D1.
In vitro tau Degradation Assay for FIGS. 2A and 2B. T-Rex CHOK1 cells are maintained in Ham's F-12 Nutrient Mix (ThermoFisher) plus 10% Fetal Bovine Serum Tetracycline Negative (Corning) with 10 ug/mL Blasticidin S HCl (Gibco) and 200 ug/mL Zeocin (100 mg/mL, Invitrogen). A stable clone expressing Tau P301L in the presence of doxycycline (1 μg/ml), clone D1 was selected. Compounds were diluted to indicated concentrations and used to treat cells for the indicated times. Cells were harvested from either 96, 24, 6, or 10 cm dishes coated with Poly-D-Lysine (Corning) in ice cold PBS or Buffer H+HALT Protease and phosphatase inhibitors (Thermofisher). Sarkosyl Insoluble tau was isolated as described in Eckermann et al. and Greenberg and Davies, accordingly. WES™ capillary electrophoresis analysis was performed on the Sarkosyl Insoluble tau fraction using Tau1 antibody (Milipore) unless otherwise indicated, as specified in the manufacturers specification (ProteinSimple).
`O=C1CCC(N2C(=O)c3cc(F)c(N4CCC(CN5CC6(C5)CN(C[C@H]5C[C@H](Oc7ccc(-c8ccc9c%10cnccc%10n(C(F)F)c9c8)cn7)C5)C6)CC4)cc3C2=O)C(=O)N1` (stereo partly drawn) [Compound 640, 5-(4-((6-(((1r,3r)-3-((5-(5-(difluoromethyl)-5H-pyrido[4,3-b]indol-7-yl)pyridin-2-yl)oxy)cyclobutyl)methyl)-2,6-diazaspiro[3.3]heptan-2-yl)methyl)piperidin-1-yl)-2-(2,6-dioxopiperidin-3-yl)-6-fluoroisoindoline-1,3-dione] was tested, and the remaining activity at 1 µM was < 50%.
In the case of `CN1CCc2c([nH]c3cc(-c4cnc(N5CCC(CCN6CCN(c7ccc8c(c7)C(=O)N(C7CCC(=O)NC7=O)C8=O)CC6)CC5)c(F)c4)ccc23)C1` (stereo not drawn) [Compound 634, 2-(2,6-dioxopiperidin-3-yl)-5-(4-(2-(1-(3-fluoro-5-(2-methyl-2,3,4,9-tetrahydro-1H-pyrido[3,4-b]indol-7-yl)pyridin-2-yl)piperidin-4-yl)ethyl)piperazin-1-yl)isoindoline-1,3-dione], the remaining activity at 1 µM is reported as < 50%.
In the case of `CC(C)(C1CCN(c2ncc(-c3ccc4c5cnccc5n(C(F)F)c4c3)cc2F)CC1)N1CCN(c2ccc3c(c2)C(=O)N(C2CCC(=O)NC2=O)C3=O)CC1` (stereo not drawn) [Compound 609, 5-(4-(2-(1-(5-(5-(difluoromethyl)-5H-pyrido[4,3-b]indol-7-yl)-3-fluoropyridin-2-yl)piperidin-4-yl)propan-2-yl)piperazin-1-yl)-2-(2,6-dioxopiperidin-3-yl)isoindoline-1,3-dione], the remaining activity at 1 µM is reported as < 50%.

Same assay, conditions: CHO-K1; remaining tau protein in sarkosyl insoluble pellet; CHOK1 Tau P301L cells treated 48 hours with test compound at 1 μM, doxycycline removed for the last 24 hours; relative to DMSO doxycycline control; read-out: Tau Protein Degradation effect at 1 μM
In the case of `Nc1cccc2cnc(-n3ccc4cc(OCCOCCOCCOCCOc5ccc6c(c5)C(=O)N(C5CCC(=O)NC5=O)C6=O)ncc43)cc12` (stereo not drawn) [Compound 353, 5-(2-(2-(2-(2-((1-(5-aminoisoquinolin-3-yl)-1H-pyrrolo[2,3-c]pyridin-5-yl)oxy)ethoxy)ethoxy)ethoxy)ethoxy)-2-(2,6-dioxopipieridin-3-yl)isoindoline-1,3-dione], the remaining activity at 1 µM is reported as < 50%.
With `Cn1c2ccncc2c2ccc(-c3ccc(OC4CC5(C4)CN(C(=O)CC4CCN(CC6CN(c7ccc8c(c7)C(=O)N(C7CCC(=O)NC7=O)C8=O)C6)CC4)C5)nc3)cc21` (stereo not drawn) [Compound 472, 2-(2,6-dioxopiperidin-3-yl)-5-(3-((4-(2-(6-((5-(5-methyl-5H-pyrido[4,3-b]indol-7-yl)pyridin-2-yl)oxy)-2-azaspiro[3.3]heptan-2-yl)-2-oxoethyl)piperidin-1-yl)methyl)azetidin-1-yl)isoindoline-1,3-dione] the remaining activity at 1 µM was < 50%.
In the case of `Cn1c2ccncc2c2ccc(-c3ccc(O[C@H]4C[C@H](CN5CCN(CCCCCOc6ccc7c(c6)C(=O)N(C6CCC(=O)NC6=O)C7=O)CC5)C4)nc3)cc21` (stereo partly drawn) [Compound 387, 2-(2,6-dioxopiperidin-3-yl)-5-((5-(4-(((1r,3r)-3-((5-(5-methyl-5H-pyrido[4,3-b]indol-7-yl)pyridin-2-yl)oxy)cyclobutyl)methyl)piperazin-1-yl)pentyl)oxy) isoindoline-1,3-dione], the remaining activity at 1 µM is reported as < 50%.
In the case of `Cn1c2ccncc2c2ccc(-c3ccc(N4CCC(CCN5CCN(c6ccc7c(c6)C(=O)N(C6CCC(=O)NC6=O)C7=O)CC5)CC4)nc3)cc21` (stereo not drawn) [Compound 397, 2-(2,6-dioxopiperidin-3-yl)-5-(4-(2-(1-(5-(5-methyl-5H-pyrido[4,3-b]indol-7-yl)pyridin-2-yl)piperidin-4-yl)ethyl)piperazin-1-yl)isindoline-1,3-dione], the remaining activity at 1 µM is reported as < 50%.
For `Cn1c2ccncc2c2ccc(-c3ccc(O[C@H]4C[C@H](CN5CC6(CN(CCOc7ccc8c(c7)C(=O)N(C7CCC(=O)NC7=O)C8=O)C6)C5)C4)nc3)cc21` (stereo partly drawn) [Compound 386, 2-(2,6-dioxo-3-piperidyl)-5-[2-[2-[[3-[[5-(5-methylpyrido[4,3-b]indol-7-yl)-2-pyridyl]oxy]cyclobutyl]methyl]-2,6-diazaspiro[3.3]heptan-6-yl]ethoxy]isoindoline-1,3-dione diformate], the remaining activity at 1 µM was < 50%.
For `O=C1CCC(N2C(=O)c3ccc(N4CCN(CCC5CCN(c6ncc(-c7ccc8c9cnccc9n(C(F)F)c8c7)cn6)CC5)CC4)cc3C2=O)C(=O)N1` (stereo not drawn) [Compound 514, 5-(4-(2-(1-(5-(5-(difluoromethyl)-5H-pyrido[4,3-b]indol-7-yl)pyrimidin-2-yl)piperidin-4-yl)ethyl)piperazin-1-yl)-2-(2,6-dioxopiperidin-3-yl)isoindoline-1,3-dione], the remaining activity at 1 µM was < 50%.
`Cc1ncsc1-c1ccc([C@H](C)NC(=O)[C@@H]2C[C@@H](O)CN2C(=O)[C@@H](NC(=O)COCCOCCOCCOCCOCCOc2cc3ccn(-c4cc5c(N)cccc5cn4)c3cn2)C(C)(C)C)cc1` [Compound 351, (2S,4R)-1-((S)-20-((1-(5-aminoisoquinolin-3-yl)-1H-pyrrolo[2,3-c]pyridin-5-yl)oxy)-2-(tert-butyl)-4-oxo-6,9,12,15,18-pentaoxa-3-azaicosanoyl)-4-hydroxy-N-((S)-1-(4-(4-methylthiazol-5-yl)phenyl)ethyl) pyrrolidine-2-carboxamide] was tested, and the remaining activity at 1 µM was > 50%.
In the case of `Cn1c2ccncc2c2ccc(-c3ccc(O[C@H]4C[C@H](OC5CCN(c6ccc7c(c6)C(=O)N(C6CCC(=O)NC6=O)C7=O)CC5)C4)nc3)cc21` (stereo partly drawn) [Compound 493, 2-(2,6-dioxopiperidin-3-yl)-5-(4-((1r,3r)-3-((5-(5-methyl-5H-pyrido[4,3-b]indol-7-yl)pyridin-2-yl)oxy)cyclobutoxy)piperidin-1-yl) isoindoline-1,3-dione], the remaining activity at 1 µM is reported as < 50%.
In the case of `O=C1CCC(N2C(=O)c3ccc(OCCOCCOCCOCCOc4ccc5cc(-n6ccc7ccncc76)ncc5c4)cc3C2=O)C(=O)N1` (stereo not drawn) [Compound 384, 5-(2-(2-(2-(2-((3-(1H-pyrrolo[2,3-c]pyridin-1-yl)isoquinolin-7-yl)oxy)ethoxy)ethoxy)ethoxy)ethoxy)-2-(2,6-dioxopiperidin-3-yl)isoindoline-1,3-dione], the remaining activity at 1 µM is reported as > 50%.
With `O=C1CCC(N2C(=O)c3ccc(OCCN4CC5(C4)CN(C[C@H]4C[C@H](OC6CCN(c7ccn8c(n7)nc7ccccc78)CC6)C4)C5)cc3C2=O)C(=O)N1` (stereo partly drawn) [Compound 460, 5-(2-(6-(((1r,3r)-3-((1-(benzo[4,5]imidazo[1,2-a]pyrimidin-2-yl)piperidin-4-yl)oxy)cyclobutyl)methyl)-2,6-diazaspiro[3.3]heptan-2-yl)ethoxy)-2-(2,6-dioxopiperidin-3-yl)isoindoline-1,3-dione] the remaining activity at 1 µM was > 50%.
For `O=C1CCC(N2C(=O)c3ccc(N4CCN(CC#CC5CCN(c6ncc(-c7ccc8c9cnccc9n(C(F)F)c8c7)cc6F)CC5)CC4)cc3C2=O)C(=O)N1` (stereo not drawn) [Compound 574, 5-(4-(3-(1-(5-(5-(difluoromethyl)-5H-pyrido[4,3-b]indol-7-yl)-3-fluoropyridin-2-yl)piperidin-4-yl)prop-2-yn-1-yl)piperazin-1-yl)-2-(2,6-dioxopiperidin-3-yl)isoindoline-1,3-dione], the remaining activity at 1 µM was < 50%.
For `O=C1CCC(N2C(=O)c3ccc(N4CCN(CCC5CCN(c6ncc(-c7ccc8c9cnccc9n(C(F)F)c8c7)cc6F)CC5)CC4)cc3C2=O)C(=O)N1` (stereo not drawn) [Compound 532, 5-[4-[2-[1-[5-[5-(difluoromethyl)pyrido[4,3-b]indol-7-yl]-3-fluoro-2-pyridyl]-4-piperidyl]ethyl]piperazin-1-yl]-2-(2,6-dioxo-3-piperidyl)isoindoline-1,3-dione trifluoroacetate], the remaining activity at 1 µM was < 50%.
In the case of `N#Cc1cc(-c2ccc3c4cnccc4n(C(F)F)c3c2)cnc1N1CCC(CCN2CCN(c3ccc4c(c3)C(=O)N(C3CCC(=O)NC3=O)C4=O)CC2)CC1` (stereo not drawn) [Compound 454, 5-(5-(difluoromethyl)-5H-pyrido[4,3-b]indol-7-yl)-2-(4-(2-(4-(2-(2,6-dioxopiperidin-3-yl)-1,3-dioxoisoindolin-5-yl)piperazin-1-yl)ethyl)piperidin-1-yl)nicotinonitrile], the remaining activity at 1 µM is reported as < 50%.
In the case of `O=C1CCC(N2C(=O)c3ccc(N4CCN(CC5CCN(C[C@H]6C[C@H](Oc7ncc(-c8ccc9c%10cnccc%10n(C(F)F)c9c8)cc7F)C6)CC5)CC4)cc3C2=O)C(=O)N1` (stereo partly drawn) [Compound 667, 5-(4-((1-(((1r,3r)-3-((5-(5-(difluoromehtyl)-5H-pyrido[4,3-b]indol-7-yl)-3-fluoropyridin-2-yl)oxy)cyclobutyl)methyl)piperidin-4-yl)methyl)piperazin-1-yl)-2-(2,6-dioxopiperidin-3-yl) isoindoline-1,3-dione], the remaining activity at 1 µM is reported as < 50%.
For `CC(C)(CC1CCN(c2ncc(-c3ccc4c5cnccc5n(C(F)F)c4c3)cc2F)CC1)N1CCN(c2ccc3c(c2)C(=O)N(C2CCC(=O)NC2=O)C3=O)CC1` (stereo not drawn) [Compound 677, 5-(4-(1-(1-(5-(5-(difluoromethyl)-5H-pyrido[4,3-b]indol-7-yl)-3-fluoropyridin-2-yl)piperidin-4-yl)-2-methylpropan-2-yl)piperazin-1-yl)-2-(2,6-dioxopiperidin-3-yl)isoindoline-1,3-dione], the remaining activity at 1 µM was < 50%.

Source: patent publication US11912699B2, “Tau-protein targeting compounds and associated” (Arvinas Operations, Inc., priority 2019, dated 2024)
